Experimental data reported in patent US5421897A, “Abatement process for contaminants” (priority 1992, dated 1995).
Like-named read-outs stand apart in the source and are kept apart here.

Legend:
[1] = 25° C.; cited from earlier work
[2] = system: mus; conditions: scu-mus; cited from earlier work
[3] = system: gpg; assay: Oral toxicity orl-gpg LDLo (lead toxicity mitigation); conditions: transformation of lead oxide to lead sulfide
[4] = system: gpg; conditions: orl-gpg; cited from earlier work
[5] = system: man; conditions: cited from earlier work
[6] = Copper oxide cleaning (Example 5), painted cinder block; conditions: weight loss
Description: Samples of coarse, deep pore cinder block (2×2×1/2 inch) were sealed by spray applying a 4-7 mil wet film thickness coating of interior, semigloss alkyd paint. The coated samples were air dried at ambient temperature for 7 days and subsequently cured at 150° F. for 8 hours. A 5% dispersion of copper oxide in hexane was spray applied until the dry copper oxide up-take reached approximately 250 mg/sample. After spraying, the samples were allowed to dry at ambient temperature for 24 hours, whereupon 20-25 wet mils of the liquid-state composition were spray applied over the contaminated surfaces. After 10 minutes, the liquid-statecomposition was scrubbed into the surface using the circular action of a nylon dental brush. After 20 scrub cycles, the brush was removed, and an additional 25-30 mils wet film thickness of liquid-state composition were spray applied over the treated area. After drying for 24 hours at ambient temperature, the solid-state matrix was removed and the reverse side was inspected. […] The larger matrix projections reached 0.6 to 0.9 mm in length. […] A subtle discoloration of the white alkyd paint (graying) was noted. Weight-loss measurements indicated 78% removal of CuO. […]

[7] = C.A. 95:36562k; cited from earlier work
[8] = C.A. 100:116031y; cited from earlier work
[9] = Sax, 6th Ed., P. 347; cited from earlier work
[10] = C.A. 96:47119t, 101:189850v; cited from earlier work
[11] = Time required to form solid-state, sodium silicofluoride added to Neoprene 671 latex; type: physicochemical
Source text: If the overspray method is not preferred, an in-situ solidifying compound can be used that reduces the application process to a single step. To effect in-situ transformation from the liquid to the solid state, about 0.25 to about 6 parts of a solidifying compound such as ammonium silicofluoride, sodium silicofluoride, or potassium silicofluoride per hundred parts solid resin (phr) may be added to the liquid-state composition as a finely ground (e.g., ball milled) dispersion just prior to application.
The time required to form a solid-state will vary according to concentration of solidifying compound and polymer type. By way of example, when sodium silicofluoride was added to Neoprene 671 latex, the following results were attained.

[12] = C.A. 103:136646t; cited from earlier work
[13] = system: dog; conditions: scu-dog; cited from earlier work
[14] = C.A. 101:205528d; cited from earlier work
[15] = C.A. 98:100331a; cited from earlier work

Compound: Formaldehyde Hydrosulfate
- Vapor pressure [1]: No vapor pressure
- LDLo [2]: 3000 mg/kg
- toxicity grade [2]: Moderate toxicity

Compound: [S]=[Pb] [lead sulfide]
- reduction in toxicity [3]: 10 fold
- LDLo [4]: 10 gm/Kg

Compound: [Cu] [Copper]
- TDLo ([5]; orl-hmn): 0.12 mg/kg

Compound: [Cd] [Cadmium]
- TCLo ([5]; inhl-man): 40 μg/m^3

Compound: lead oxide
- LDLo [4]: 1000 mg/kg

Compound: O=P([O-])([O-])[O-].[Na+].[Na+].[Na+] [trisodiumphosphate]
- removal of CuO [6]: 55%

Compound: O=C([O-])[O-].O=C([O-])[O-].[OH-].[OH-].[Pb+2].[Pb+2].[Pb+2] [White lead]
- Symptoms ([5]; in vivo): Same as lead halides
- TDLo ([5]; orl-man): 214 mg/kg

Compound: C=O [Formaldehyde]
- Vapor pressure [1]: 0.187 kPa
- LD50 [2]: 300 mg/kg
- toxicity grade [2]: Severe toxicity

Compound: O=C(O)C(S)C(S)C(=O)O (centres unmarked) [2,3-dimercaptosuccinic acid]
- antidotal activity for antimony [7]: provides antidotal activity for antimony

Compound: [Sb] [Antimony]
- LDLo ([5]; unk.-man): 15 mg/kg

Compound: [SH-].[SH-].[S]=[Mo]=[S] [Tetrathiomolybdate (VI)]
- antidotal activity for copper [8]: provides antidotal activity for copper

Compound: Barium sulfate
- acute toxicity [9]: not being acutely toxic

Compound: [Cl][Pb][Cl] [Lead chloride]
- LDLo [4]: 2000 mg/kg

Compound: O=P(O)(O)O[C@H]1[C@H](OP(=O)(O)O)[C@@H](OP(=O)(O)O)[C@H](OP(=O)(O)O)[C@@H](OP(=O)(O)O)[C@H]1OP(=O)(O)O [Sodium phytate]
- antidotal activity [10]: provides antidotal activity

Compound: F[Si-2](F)(F)(F)(F)F.[Na+].[Na+] [Sodium Silicofluoride, sodium silicofluoride]
- Time Required to Form Solid-State ([11]; 2 phr added to Neoprene 671 latex): 150 min
- Time Required to Form Solid-State ([11]; 2.5 phr added to Neoprene 671 latex): 18 min
- Time Required to Form Solid-State ([11]; 3 phr added to Neoprene 671 latex): 7 min
- Time Required to Form Solid-State ([11]; 4 phr added to Neoprene 671 latex): 5 min

Compound: [Ba] [Barium]
- LDLo ([5]; orl-hmm): 11.4 mg/kg

Compound: O=C(O)CN(CC(=O)O)CC(=O)O [N,N-bis(carboxymethyl)glycine]
- antidotal activity for chromium [12]: provides antidotal activity for chromium

Compound: [Cr] [Chromium]
- LDLo [13]: 330 mg/kg

Compound: O=C(O)c1ccccc1C(=O)NCC(S)CS (centres unmarked) [N-(2,3-dimercaptopropyl)phthalamidic acid]
- antidotal activity for sodium arcenate [14]: provides antidotal activity for sodium arcenate

Compound: O=Cc1ccc(O)cc1O [2,4-dihydroxybenzaldehyde]
- spray-on reagent for identification of arsenic III [15]: useful as a spray-on reagent for the identification of arsenic III
